Test results reported in article PMC5011342, “A high throughput drug screening assay to identify compounds that promote oligodendrocyte differentiation using acutely dissociated and purified oligodendrocyte precursor cells” (BMC Research Notes, 2016).
Read-outs that look alike come from different tables or passages of the source.

Experiments:
[1] = tested on: acutely dissociated and purified rat OPCs; test: Acute OL differentiation assay (MBP expression/cell, immunofluorescent image quantification); type: cell-based; conditions: for activation at 2 µM / activation at 10 µM / activation at 0.4 µM: Rattus norvegicus
Method in brief: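 Oligodendrocyte precursor cells were enriched from P6-P7 Sprague–Dawley rat brains by immunopanning (RAN-2 and GalC depletion, O4 selection), plated at 5000 cells/well in serum-free, mitogen-free differentiation media on PDL/laminin 96-well view plates, centrifuged at 200×g, and pre-incubated 1–2 h before test compounds were added in quadruplicate. On DIV4, cells were fixed, stained for MBP and DAPI, imaged automatically, and MBP expression per cell was quantified.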

expanded OPCs = test: cells; conditions: for viability at 0.1 µM / viability at 1 µM / viability at 10 µM: Rattus norvegicus, 72 h
Method in brief: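 Expanded OPCs seeded at 10,000 cells/well in differentiation media, then exposed to NCC library compounds at 10, 1 and 0.1 µM (quadruplicate, 0.1% DMSO) for three days. Viability read as alamarBlue fluorescence (560/590 nm) after 4 h at 37 °C; tunicamycin 5 ng/ml served as toxicity control.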

[2] = 2 uM test compound, relative to quetiapine, sheet "All OLga data", read-out: OL differentiation, 2 uM (% Quet)
[3] = 10 uM test compound, relative to quetiapine, sheet "All OLga data", read-out: OL differentiation, 10 uM (% Quet)
[4] = read-out: 0.1 µM (% DMSO), alamarBlue viability of expanded OPCs, compound at 0.1 µM, sheet All Tox data
[5] = read-out: 1 µM (% DMSO), alamarBlue viability of expanded OPCs, compound at 1 µM, sheet All Tox data
[6] = read-out: 10 µM (% DMSO), alamarBlue viability of expanded OPCs, compound at 10 µM, sheet All Tox data
[7] = test compound at 2 uM, MBP expression relative to quetiapine, NCC library screen, sheet "All OLga data", read-out: 2 uM (% Quet)
[8] = test compound at 10 uM, MBP expression relative to quetiapine, NCC library screen, sheet "All OLga data", read-out: 10 uM (% Quet)
[9] = alamarBlue viability of expanded OPCs, compound at 0.1 µM, relative to DMSO control
[10] = alamarBlue viability of expanded OPCs, compound at 1 µM, relative to DMSO control
[11] = alamarBlue viability of expanded OPCs, compound at 10 µM, relative to DMSO control
[12] = read-out: 0.1 µM (% DMSO), alamarBlue viability, NCC library compound at 0.1 µM, sheet "All Tox data"
[13] = read-out: 1 µM (% DMSO), alamarBlue viability, NCC library compound at 1 µM, sheet "All Tox data"
[14] = read-out: 10 µM (% DMSO), alamarBlue viability, NCC library compound at 10 µM, sheet "All Tox data"
[15] = test compound at 2 uM, NCC library screen, sheet "All OLga data", relative to quetiapine, read-out: 2 uM (% Quet)
[16] = test compound at 10 uM, NCC library screen, sheet "All OLga data", relative to quetiapine, read-out: 10 uM (% Quet)

Structure (SMILES): CC(C)NCC(O)COc1ccc(COCCOC(C)C)cc1 (stereo not shown) [Bisoprolol]
- activation at 2 µM [1, 2]: -18.8%
- activation at 10 µM [1, 3]: -17.3%
- viability at 0.1 µM (expanded OPCs; [4]): 91.3%
- viability at 1 µM (expanded OPCs; [5]): 89.8%
- viability at 10 µM (expanded OPCs; [6]): 96.5%

Structure (SMILES): Brc1c(NC2=NCCN2)ccc2nccnc12 [Brimonidine]
- activation at 2 µM [1, 7]: 21.9%
- activation at 10 µM [1, 8]: 8.8%
- 0.1 µM (% DMSO) (expanded OPCs; [9]): 91.9 % DMSO
- 1 µM (% DMSO) (expanded OPCs; [10]): 99.2 % DMSO
- 10 µM (% DMSO) (expanded OPCs; [11]): 95.4 % DMSO

Structure (SMILES): CN(C)CCC(c1ccc(Br)cc1)c1ccccn1 (stereo not shown) [Brompheniramine]
- activation at 0.4 µM ([1]; 0.4 uM test compound, relative to quetiapine, sheet "All OLga data", read-out: OL differentiation, 0.4 uM (% Quet)): -2%
- activation at 2 µM [1, 2]: 0.5%
- viability at 0.1 µM (expanded OPCs; [12]): 95.3%
- viability at 1 µM (expanded OPCs; [13]): 84.4%
- viability at 10 µM (expanded OPCs; [14]): 39.2%

Structure (SMILES): COc1cc2c(cc1OC)[C@@]13CCN4CC5=CCO[C@H]6CC(=O)N2[C@H]1[C@H]6[C@H]5C[C@H]43 [Brucine]
- activation at 0.4 µM ([1]; test compound at 0.4 uM, NCC library screen, sheet "All OLga data", relative to quetiapine, read-out: 0.4 uM (% Quet)): -2.6%
- activation at 2 µM [1, 15]: 11%
- viability at 0.1 µM (expanded OPCs; [12]): 93%
- viability at 1 µM (expanded OPCs; [13]): 79.4%
- viability at 10 µM (expanded OPCs; [14]): 46.6%

Structure (SMILES): CCCC1O[C@@H]2C[C@H]3[C@@H]4CCC5=CC(=O)C=C[C@]5(C)[C@H]4[C@@H](O)C[C@]3(C)[C@]2(C(=O)CO)O1 (stereo partly shown) [Budesonide]
- activation at 2 µM [1, 7]: 20.2%
- activation at 10 µM [1, 8]: -2.2%
- 0.1 µM (% DMSO) (expanded OPCs; [9]): 112.0 % DMSO
- 1 µM (% DMSO) (expanded OPCs; [10]): 115.9 % DMSO
- 10 µM (% DMSO) (expanded OPCs; [11]): 95.7 % DMSO

Structure (SMILES): COc1cc(OC)c(C(=O)CCCN2CCCC2)c(OC)c1 [Buflomedil]
- activation at 2 µM [1, 2]: -16.4%
- activation at 10 µM [1, 3]: 24.4%
- viability at 0.1 µM (expanded OPCs; [4]): 105%
- viability at 1 µM (expanded OPCs; [5]): 97.6%
- viability at 10 µM (expanded OPCs; [6]): 124%

Structure (SMILES): CCCCNc1cc(C(=O)O)cc(S(N)(=O)=O)c1Oc1ccccc1 [Bumetanide]
- activation at 2 µM [1, 15]: -20.2%
- activation at 10 µM [1, 16]: -11.6%
- 0.1 µM (% DMSO) (expanded OPCs; [9]): 92.3 % DMSO
- 1 µM (% DMSO) (expanded OPCs; [10]): 97.8 % DMSO
- 10 µM (% DMSO) (expanded OPCs; [11]): 92.2 % DMSO

Structure (SMILES): CCCCN1CCCCC1C(=O)Nc1c(C)cccc1C (stereo not shown) [Bupivacaine]
- activation at 2 µM [1, 15]: -1%
- activation at 10 µM [1, 16]: 7%
- viability at 0.1 µM (expanded OPCs; [12]): 79.1%
- viability at 1 µM (expanded OPCs; [13]): 83.4%
- viability at 10 µM (expanded OPCs; [14]): 70.5%

Structure (SMILES): CC(NC(C)(C)C)C(=O)c1cccc(Cl)c1 (stereo not shown) [Bupropion]
- activation at 2 µM [1, 2]: 33.6%
- viability at 0.1 µM (expanded OPCs; [4]): 94.3%
- viability at 1 µM (expanded OPCs; [5]): 98.9%
- viability at 10 µM (expanded OPCs; [6]): 128%

Structure (SMILES): O=C1CC2(CCCC2)CC(=O)N1CCCCN1CCN(c2ncccn2)CC1 [Buspirone]
- activation at 2 µM [1, 7]: 11.2%
- activation at 10 µM [1, 8]: 38.1%
- 0.1 µM (% DMSO) (expanded OPCs; [9]): 98.1 % DMSO
- 1 µM (% DMSO) (expanded OPCs; [10]): 95.9 % DMSO
- 10 µM (% DMSO) (expanded OPCs; [11]): 122.3 % DMSO

Structure (SMILES): CS(=O)(=O)OCCCCOS(C)(=O)=O [Busulfan]
- activation at 2 µM [1, 15]: 2.3%
- activation at 10 µM [1, 16]: -6.2%
- 0.1 µM (% DMSO) (expanded OPCs; [9]): 93.9 % DMSO
- 1 µM (% DMSO) (expanded OPCs; [10]): 91.8 % DMSO
- 10 µM (% DMSO) (expanded OPCs; [11]): 79.1 % DMSO

Structure (SMILES): OC[C@H]1O[C@@H](n2cnc3c(NC4CCCC4)nc(Cl)nc32)[C@H](O)[C@@H]1O [CCPA]
- 2 uM (% Quet) ([1]; test compound at 2 uM, NCC library screen, sheet "All OLga data", relative to quetiapine): -30.5 % Quet
- 10 uM (% Quet) ([1]; test compound at 10 uM, NCC library screen, sheet "All OLga data", relative to quetiapine): -64.0 % Quet
- 0.1 µM (% DMSO) (expanded OPCs; alamarBlue viability, NCC library compound at 0.1 µM, sheet "All Tox data"): 87.1 % DMSO
- 1 µM (% DMSO) (expanded OPCs; alamarBlue viability, NCC library compound at 1 µM, sheet "All Tox data"): 88.1 % DMSO
- 10 µM (% DMSO) (expanded OPCs; alamarBlue viability, NCC library compound at 10 µM, sheet "All Tox data"): 93.0 % DMSO

Structure (SMILES): Nc1nc2ccc(Cl)cc2c2nc(-c3ccco3)nn12 [CGS 15943]
- activation at 2 µM ([1]; read-out: OL differentiation, 2 uM (% Quet)): -24.4%
- activation at 10 µM ([1]; read-out: OL differentiation, 10 uM (% Quet)): -126%
- viability at 0.1 µM (expanded OPCs; read-out: 0.1 µM (% DMSO)): 81.2%
- viability at 1 µM (expanded OPCs; read-out: 1 µM (% DMSO)): 94.8%
- viability at 10 µM (expanded OPCs; read-out: 10 µM (% DMSO)): 112%
